In patent US11278515B2, “Composition for improvement of sleep or for prevention or treatment of sleep disorders, containing beta-lapachone” (AJOU UNIVERSITY INDUSTRY-ACADEMIC COOPERATION FOUNDATION, priority 2016, dated 2022):

System: mice
Test: pentobarbital-induced sleep test in mice (sleep latency and total sleeping time)
Assay type: in vivo
Conditions: 30 minutes before pentobarbital 45 mg/kg i.p.
Protocol: A sleep disorder refers to syndromes in which one cannot fall asleep well and the total sleeping time is short. In order to confirm the effect of improving the sleep quality of beta-lapachone, mice were purchased from Orient Bio Co. Beta-lapachone (Sigma Aldrich) was administered once intraperitoneally or orally to mice at a dose of 0.03, 0.1, 0.3, or 1 mg/kg by concentration, respectively, 30 minutes before induction of sleep, and 0.9% physiological saline was administered to the control mice, and 1 mg/kg of diazepam (MYUNG IN Pharm. Co.), most popular used sleeping pill, was administered intraperitoneally or orally to the positive control mice. 45 mg/kg of pentobarbital ([…] Pharm. Co., Ltd.), a commercially used sedative and sleeping pill, was intraperitoneally administered to mice to induce sleeping after 30 minutes of the above administration.

Question: Which sleep latency (single intraperitoneal administration at 0.03, 0.1, 0.3 or 1 mg/kg, FIG. 1) does the source give for `CC1(C)CCC2=C(O1)c1ccccc1C(=O)C2=O` [beta-lapachone] here?
Answer: Its sleep latency is “shortened in a concentration-dependent manner”.

Question: And the total sleeping time (single intraperitoneal administration at 0.03, 0.1, 0.3 or 1 mg/kg, FIG. 2)?
Answer: Its total sleeping time is “increased in a concentration-dependent manner”.

Question: What about the sleep latency (single oral administration at 0.03, 0.1, 0.3 or 1 mg/kg, FIG. 3) of the same compound?
Answer: The sleep latency was “shortened in a concentration-dependent manner”.

Question: And the total sleeping time (single oral administration at 0.03, 0.1, 0.3 or 1 mg/kg, FIG. 4)?
Answer: The total sleeping time was “increased in a concentration-dependent manner”.
